The values below come from article PMC12036557, “Functional Imaging of CYP3A4 at Multiple Dimensions Using an AI‐Driven High Performance Fluorogenic Substrate” (Small (Weinheim an Der Bergstrasse, Germany), 2025).

Data set [1] has as its system CYP3A4. Description: Liver organ imaging in the presence of CYP3A4 inhibitor (ex vivo). As to conditions: mouse, excised whole liver tissue (ex vivo), probe NFa (50 µM); whole mice liver, inhibitor 1 h, NFa 50 µM 30 min; read-out: IC50 (4‐HNFa levels in liver tissue).
In data set [2] the test system is CYP3A4. Description: In vivo inhibitory effect against CYP3A4 (pharmacokinetics of NFa with inhibitor). Also noted: species or system C57 mice. To be noted: inhibitor 50 mg/kg i.g., NFa 20 mg/kg i.g., mice.
Data set [3] has as its target T1, CYP3A4 (Homo sapiens, UniProt P08684). The data set can be described thus: NFa-based inhibition assay in recombinant hCYP3A4. In kind it is biochemical. Set-up: purchased Cypex. To be noted: read-out: IC50 against CYP3A4‐catalyzed NFa 4‐hydroxylation.
Data set [4] has as its target T1, CYP3A4. The data set can be described thus: NFa-based screening and characterizing of hCYP3A4 inhibitors in HLMs. As to conditions: human, human liver microsomes, pH 7.4, probe NFa (4-hydroxylation to 4-HNFa). Background: Liver microsomes are a subcellular fraction often used to study metabolism.
Data set [5] addresses hCYP3A4 in HLMs (Homo sapiens, UniProt P08684). Described as above.
Data set [6] addresses T1, CYP3A4. Description: Inhibitory effect of D13 in CHO-3A4 stably transfected cell line. The class given is cell-based. As to conditions: CHO-3A4 cells, D13 1 h, NFa 10 μM 30 min; read-out: inhibitory effect (IC50) in living cells. Also noted: expressed in transfected cells; host or cells: CHO-3A4 stably transfected cell line.
In data set [7] the target is T1, CYP3A4. Description: in vitro. As to conditions: pH 7.4.
The test system of data set [8] is CYP3A. Description: Functional imaging of CYP3A4 in mouse liver tissue slices. To be noted: pre‐incubated 1 h, inhibitor 20 µM.
Data set [9] has as its system panel of human recombinant cytochrome P450 enzymes. Description: P450 reaction phenotyping analysis. The class given is biochemical. To be noted: each recombinant CYP 2.5 nM, 37 °C, 30 min.
Data set [10] deals with FMO1, FMO3, FMO5. Description: Oxidative metabolism of NFa in FMOs. In kind it is in vitro ADME. As to conditions: NFa 20 μM, NADPH, 30 min.
Data set [11] concerns the target T2, aldehyde oxidase (AO) (Homo sapiens, UniProt Q06278).
T2 construct: The oxidative metabolism of NFa in human liver cytosol (HLC) without NADPH; from tissue; host or cells: human liver cytosol
T2 sequence (Q06278 1-1338): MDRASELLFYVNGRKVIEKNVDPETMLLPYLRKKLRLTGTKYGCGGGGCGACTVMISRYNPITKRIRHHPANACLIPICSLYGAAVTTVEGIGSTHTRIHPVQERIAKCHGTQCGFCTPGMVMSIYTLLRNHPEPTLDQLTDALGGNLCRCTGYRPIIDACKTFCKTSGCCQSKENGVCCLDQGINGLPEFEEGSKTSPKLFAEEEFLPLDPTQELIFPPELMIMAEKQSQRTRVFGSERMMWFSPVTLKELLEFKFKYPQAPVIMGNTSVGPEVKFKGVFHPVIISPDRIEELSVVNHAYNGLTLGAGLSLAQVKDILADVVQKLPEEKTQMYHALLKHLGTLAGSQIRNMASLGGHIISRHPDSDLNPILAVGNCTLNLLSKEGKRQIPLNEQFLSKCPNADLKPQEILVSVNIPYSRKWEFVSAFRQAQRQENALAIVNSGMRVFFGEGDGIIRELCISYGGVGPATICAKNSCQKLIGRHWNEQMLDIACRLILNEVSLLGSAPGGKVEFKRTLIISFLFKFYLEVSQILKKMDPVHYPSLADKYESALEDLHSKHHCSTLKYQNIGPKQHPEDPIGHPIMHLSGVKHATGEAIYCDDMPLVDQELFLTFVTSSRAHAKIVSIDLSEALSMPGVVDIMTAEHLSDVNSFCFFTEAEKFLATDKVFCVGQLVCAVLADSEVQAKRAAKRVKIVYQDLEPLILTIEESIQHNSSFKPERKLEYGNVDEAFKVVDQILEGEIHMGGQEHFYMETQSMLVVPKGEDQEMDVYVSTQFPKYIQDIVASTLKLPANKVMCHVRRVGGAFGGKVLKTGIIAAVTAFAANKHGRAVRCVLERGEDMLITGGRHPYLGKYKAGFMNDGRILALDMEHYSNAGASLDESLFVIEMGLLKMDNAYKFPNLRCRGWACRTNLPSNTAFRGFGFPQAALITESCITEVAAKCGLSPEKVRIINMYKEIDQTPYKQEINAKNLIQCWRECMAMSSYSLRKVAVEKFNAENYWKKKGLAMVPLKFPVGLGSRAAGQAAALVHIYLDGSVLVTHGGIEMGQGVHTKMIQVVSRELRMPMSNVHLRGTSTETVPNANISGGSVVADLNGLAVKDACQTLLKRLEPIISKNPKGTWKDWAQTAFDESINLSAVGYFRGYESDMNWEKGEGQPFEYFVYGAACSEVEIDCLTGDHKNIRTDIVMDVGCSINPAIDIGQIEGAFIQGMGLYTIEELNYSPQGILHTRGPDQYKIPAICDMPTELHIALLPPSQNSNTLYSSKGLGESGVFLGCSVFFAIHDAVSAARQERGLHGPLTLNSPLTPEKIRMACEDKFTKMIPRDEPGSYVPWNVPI
Description: Oxidative metabolism of NFa in AO (human liver cytosol). The class given is in vitro ADME. To be noted: NFa 20 μM, human liver cytosol without NADPH, 30 min.

The nature of data set [12]: Optical properties, photostability and pH stability of NFa and 4-HNFa. In kind it is physicochemical. Also noted: maximum UV absorption: unit not given here.
The test system of data set [13] is NCM460 cells. Description: Cell-membrane permeability in NCM460 cells. The class given is cell-based. As to conditions: 20 μM, 60 min.
Data set [14] concerns Hep3B cells. The data set can be described thus: Cell-membrane permeability in Hep3B cells. The class given is cell-based. As to conditions: 20 μM, 60 min.
Data set [15] deals with T3, P-gp (Homo sapiens, UniProt P08183).
T3 construct: expressed in transfected cells; host or cells: MDR1-MDCK
The data set can be described thus: Identification of the P-gp substrates in living cells (MDR1-MDCK). The class given is cell-based. As to conditions: with/without verapamil.

The test system of data set [16] is MCF‐7, Hep3B, and U87 cells. The data set can be described thus: Cytotoxicity assays. In kind it is cell-based.
Data set [17] has as its target T1, CYP3A4. Description: Functional imaging of hCYP3A4 in living cells. In kind it is cell-based. To be noted: MCF‐7 and Hep3B cells.
The nature of data set [18]: In vivo inhibitory effect against CYP3A4 (pharmacokinetics of NFa with inhibitor). Set-up: species or system C57 mice. As to conditions: C57, mouse, plasma, po, 20 mg/kg, mice plasma; for AUC: read-out: AUC(0‐inf).
Data set [19] in a line: Pharmacokinetics and oral bioavailability of NFa. The class given is in vivo. To be noted: mice.
Data set [20] can be described thus: Safety test of NFa in healthy mice. In kind it is in vivo, C57BL/6J mice. As to conditions: oral 100 mg kg^−1 per day, 14 consecutive days.
The target of data set [21] is T1, CYP3A4. Description: Enzyme kinetic analyses of NFs 4-hydroxylation by hCYP3A4. In kind it is biochemical. Set-up: purchased Cypex.
Data set [22] addresses T1, CYP3A4. The data set can be described thus: Fluorescence response of NFa toward hCYP3A4. In kind it is biochemical. Also noted: purchased Cypex.
Data set [23] has as its system CYP3A4. Set-up: method as in PMID 22971642. As to conditions: RTV 50 mg kg^−1, mice; cited from earlier work.
Setting [24] is: NFa 20 mg/kg i.g. with D13 50 mg/kg i.g.
The mark [25] stands for this setting: NFa 20 mg/kg i.g. with RTV 50 mg/kg i.g.
The mark [26] stands for this setting: NFa 20 mg/kg i.g., control group CMC‐Na.
The mark [27] stands for this setting: mouse, plasma, po, 20 mg/kg, i.g.

Read-outs that look alike come from different tables or passages of the source.

T1 sequence (P08684 whole entry): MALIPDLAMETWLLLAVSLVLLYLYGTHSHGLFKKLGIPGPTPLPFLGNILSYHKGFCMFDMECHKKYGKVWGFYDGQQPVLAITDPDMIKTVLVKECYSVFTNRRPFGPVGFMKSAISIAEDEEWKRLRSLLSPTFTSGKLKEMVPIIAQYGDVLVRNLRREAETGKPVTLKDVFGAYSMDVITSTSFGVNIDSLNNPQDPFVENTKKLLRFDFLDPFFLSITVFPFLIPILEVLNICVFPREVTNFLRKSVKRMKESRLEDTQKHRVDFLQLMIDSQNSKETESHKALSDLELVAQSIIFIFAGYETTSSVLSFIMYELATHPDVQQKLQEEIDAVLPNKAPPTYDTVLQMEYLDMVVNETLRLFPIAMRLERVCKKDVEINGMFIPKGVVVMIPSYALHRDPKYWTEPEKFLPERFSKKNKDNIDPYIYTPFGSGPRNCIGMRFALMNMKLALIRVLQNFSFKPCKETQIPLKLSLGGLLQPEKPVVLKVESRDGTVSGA
Sequence of hCYP3A4 in HLMs (P08684 whole entry): as above
T3 sequence (P08183 whole entry): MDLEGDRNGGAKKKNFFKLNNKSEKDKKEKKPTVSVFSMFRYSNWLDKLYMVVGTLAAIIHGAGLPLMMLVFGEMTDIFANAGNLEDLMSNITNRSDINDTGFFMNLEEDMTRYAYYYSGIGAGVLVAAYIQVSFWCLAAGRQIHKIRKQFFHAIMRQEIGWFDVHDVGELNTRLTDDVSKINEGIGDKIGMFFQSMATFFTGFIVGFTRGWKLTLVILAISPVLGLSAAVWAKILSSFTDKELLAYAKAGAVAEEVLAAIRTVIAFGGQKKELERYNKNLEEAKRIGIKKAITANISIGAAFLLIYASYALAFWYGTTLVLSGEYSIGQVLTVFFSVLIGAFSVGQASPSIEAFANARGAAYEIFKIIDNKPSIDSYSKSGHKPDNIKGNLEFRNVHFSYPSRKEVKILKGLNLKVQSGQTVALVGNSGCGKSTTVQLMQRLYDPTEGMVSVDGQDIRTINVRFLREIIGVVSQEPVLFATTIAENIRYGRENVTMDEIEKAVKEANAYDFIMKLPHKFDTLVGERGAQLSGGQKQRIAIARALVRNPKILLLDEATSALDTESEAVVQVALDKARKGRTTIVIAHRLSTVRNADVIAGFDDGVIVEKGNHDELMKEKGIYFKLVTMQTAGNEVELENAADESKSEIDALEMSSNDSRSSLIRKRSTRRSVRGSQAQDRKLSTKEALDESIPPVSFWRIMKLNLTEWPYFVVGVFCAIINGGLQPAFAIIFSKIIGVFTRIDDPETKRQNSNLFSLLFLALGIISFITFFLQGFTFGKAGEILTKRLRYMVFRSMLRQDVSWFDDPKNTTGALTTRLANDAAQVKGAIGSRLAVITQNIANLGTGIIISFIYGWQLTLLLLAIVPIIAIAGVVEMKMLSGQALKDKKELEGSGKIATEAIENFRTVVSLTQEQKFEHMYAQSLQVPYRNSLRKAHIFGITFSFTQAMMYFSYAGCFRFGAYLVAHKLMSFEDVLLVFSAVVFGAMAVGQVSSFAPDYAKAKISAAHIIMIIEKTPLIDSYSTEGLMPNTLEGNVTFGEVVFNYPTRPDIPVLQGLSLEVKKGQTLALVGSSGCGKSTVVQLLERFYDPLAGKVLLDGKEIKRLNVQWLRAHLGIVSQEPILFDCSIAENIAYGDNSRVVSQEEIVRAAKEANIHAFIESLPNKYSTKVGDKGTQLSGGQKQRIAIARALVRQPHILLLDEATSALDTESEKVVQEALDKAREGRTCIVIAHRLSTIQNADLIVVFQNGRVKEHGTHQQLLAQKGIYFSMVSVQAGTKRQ

One may read the IC50 as the concentration that inhibits the measured activity by half. For `O=C(/C=C/c1ccc2cnccc2c1)c1ccc(N2CCCC2)cc1` [D13, (E)-3-(isoquinolin-6-yl)-1-(4-(pyrrolidin-1-yl)phenyl)prop-2-en-1-one], the IC50 in [1] stood at 0.27 ± 0.05 µM; in [3] it was 0.0109 µM; in data set [5], 0.0136 µM; in data set [6] it was 0.0254 µM. Further, the “Ratio of AUC(0‐inf) of NFa (inhibitor group / control group)” value in data set [2] was determined as 7.22. For the same compound, the “Ratio of C max of NFa (inhibitor group / control group)” value in [2] stood at 2.37. For the same compound, in data set [2], the “Ratio of T max of NFa (inhibitor group / control group)” value is recorded as 0.56. Moreover, the “Ratio of t 1/2 of NFa (inhibitor group / control group)” value in data set [2] is 2.87. The compound also came in with an activity at 30 min, 1 µM in data set [4] of 4.08%. Further, in [5] (inhibitor 1 μM, HLMs, NFa as fluorogenic substrate), the Residual activity entry is “completely inhibited”.
For the compound `CC(=O)N1CCN(c2ccc(OCC3COC(Cn4ccnc4)(c4ccc(Cl)cc4Cl)O3)cc2)CC1` (centres unmarked) [KET, ketoconazole, reference compound], the activity at 30 min, 1 µM in data set [7] was 1.91%. Moreover, the “effect on NFa green signals in mouse liver slices” value in [8] is listed as “significantly blocked”.
Usually half-life stands for the time in which the quantity being followed falls by half. Usually AUC(0-inf) stands for the area under the concentration-time curve extrapolated to infinity. One may read the bioavailability as the share of a dose that reaches the circulation, judged against a reference dose that is usually intravenous. Consider `O=C1c2cccc3cccc(c23)C(=O)N1Cc1cscn1` [NFa, N-(4-Thiazolemethanamino)-naphtahlimide], for which the “isoform specificity as P450 substrate” value in data set [9] is listed as “highly specific substrates for hCYP3A4”. For the same compound, the “participation of FMOs in the oxidative metabolism” value in data set [10] is on record as “did not participate”. In [11], the “participation of AO in the oxidative metabolism” value is on record as “did not participate”. In data set [12], the “Molar extinction coefficient ε” value stood at 44300 M⁻¹ cm⁻¹, the “maximum UV absorption” value was 340 and the maximum fluorogenic emission turned out to be 390 nm. Also, in data set [13], the “enhancement of cell‐membrane permeability versus NEN” value amounted to 28 fold. In addition, the “enhancement of cell‐membrane permeability versus NEN” value in data set [14] was determined as 5.6 fold. The “P‐gp substrate status” value in [15] was “non‐substrate for P‐gp”. The cytotoxicity result in data set [16] is “weak cytotoxicity”. Besides, the “Pearson's coefficient of co‐localization with ER‐Tracker Red” value in data set [17] is given as 0.99. In [18] (setting [24]), the Cmax came out at 0.498 ± 0.209 µg/mL, the Tmax was 0.7 ± 0.27 h, the half-life was 6.37 ± 4.65 h and the AUC worked out at 4.63 ± 2.23 µg·h/mL. Further, in data set [18] (setting [25]), the Cmax is 0.494 ± 0.131 µg/mL, the Tmax was determined as 0.95 ± 0.67 h, the half-life was 8.09 ± 7.52 h and the AUC stood at 5.79 ± 5 µg·h/mL. Besides, in data set [18] (setting [26]), the Cmax turned out to be 0.21 ± 0.125 µg/mL, the Tmax came to 1.25 ± 0.61 h, the half-life was 2.22 ± 0.94 h and the AUC was found to be 0.642 ± 0.146 µg·h/mL. In data set [19] (20 mg/kg i.g. vs 2 mg/kg i.v.), this compound showed an Oral bioavailability of 15.27%. Besides, in data set [19] (mouse, plasma, iv, 2 mg/kg), the total exposure AUC(0-inf) was determined as 0.439 ± 0.0407 µg·h/mL, the Cmax was found to be 0.913 ± 0.116 µg/mL, the Tmax came out at 0.083 h and the half-life was 1.24 ± 0.39 h. In [19] (mouse, plasma, oral, 20 mg/kg, 20 mg/kg i.g. vs 2 mg/kg i.v.), this compound displayed a bioavailability of 15.3%. Also, in data set [19] (setting [27]), the AUC(0-inf) was determined as 0.67 ± 0.232 µg·h/mL, the Cmax is 0.25 ± 0.09 µg/mL, the Tmax is 1.17 ± 0.41 h and the half-life was 1.55 ± 0.61 h. In addition, in [20], the “biochemical assays and H&E staining findings” value is recorded as “no haematotoxicity, organ injuries, or apparent abnormalities”; the body weight entry is recorded as “gradual increase”; the mortality result is “no mortality”. In data set [21], this compound returned a K m of 13.33 ± 1.01 µM. The “limit of detection for sensing hCYP3A4” value in data set [22] is on record as 0.047 nM. Also, the “interference from endogenous fatty acids, amino acids, and cations on NFa 4‐hydroxylation by hCYP3A4” value in data set [22] (NFa 10 μM, 37 ℃, 30 min) is “no interference”. In addition, the “enhancement in fluorescence emission ≈555 nM” value in data set [22] (NFa 10 µM, hCYP3A4 10 nM, 37 °C, 30 min, λex 450) is listed as 154 fold.
In the case of `CC(C)c1nc(CN(C)C(=O)N[C@H](C(=O)N[C@@H](Cc2ccccc2)C[C@H](O)[C@H](Cc2ccccc2)NC(=O)OCc2cncs2)C(C)C)cs1` [RTV, Ritonavir], the “increase of AUCinf of midazolam (oral) when co‐administered with RTV” value in [23] is on record as “five‐fold”.
